# Test results published in patent US20080235828A1 (University of Manitoba, priority 2004, published 2008).
# Legend:
# [1] = target: ABAP1 (Hordeum vulgare, UniProt Q9LLX3); assay: ABA binding assay with purified recombinant ABAP1; design: species or system barley
# Experimental: Other additions or changes to the incubation system are discussed in the figure legends. All binding assays were carried out at a final volume of 150 μL at 4° C. for 1 hour. The mixture was then rapidly filtered through a nitrocellulose membrane, washed with 5 mL, of cold 0.5× binding buffer by rapid filtration, dried in air and counted in a scintillation counter (Wallac 1414 WinSpectral v1.40). […] The DCC binding mixture was maintained for 15 minutes on ice before centrifugation to precipitate DCC. The resulted supernatant was then counted in a scintillation counter to determine the binding activity. […] Heat denatured ABAP1 protein was used to determine the protein nature of the ABAP1 and BSA was used as a control. All binding studies were carried out using three different protein purifications with triplicate assays for each purification. […] Binding was represented as the number of moles of ^3H^+-ABA per mole of ABAP1 protein.
# [2] = target: T1, FCA protein (Arabidopsis thaliana, UniProt O04425); assay: ABA binding assay with purified recombinant FCA; design: other: in the absence of FY, at 15 min; other: in the absence of FY, at 45 min; fused on or other part: GST fused on; details: in the absence of FY
# T1 sequence (O04425 1-747 isoform O04425-1): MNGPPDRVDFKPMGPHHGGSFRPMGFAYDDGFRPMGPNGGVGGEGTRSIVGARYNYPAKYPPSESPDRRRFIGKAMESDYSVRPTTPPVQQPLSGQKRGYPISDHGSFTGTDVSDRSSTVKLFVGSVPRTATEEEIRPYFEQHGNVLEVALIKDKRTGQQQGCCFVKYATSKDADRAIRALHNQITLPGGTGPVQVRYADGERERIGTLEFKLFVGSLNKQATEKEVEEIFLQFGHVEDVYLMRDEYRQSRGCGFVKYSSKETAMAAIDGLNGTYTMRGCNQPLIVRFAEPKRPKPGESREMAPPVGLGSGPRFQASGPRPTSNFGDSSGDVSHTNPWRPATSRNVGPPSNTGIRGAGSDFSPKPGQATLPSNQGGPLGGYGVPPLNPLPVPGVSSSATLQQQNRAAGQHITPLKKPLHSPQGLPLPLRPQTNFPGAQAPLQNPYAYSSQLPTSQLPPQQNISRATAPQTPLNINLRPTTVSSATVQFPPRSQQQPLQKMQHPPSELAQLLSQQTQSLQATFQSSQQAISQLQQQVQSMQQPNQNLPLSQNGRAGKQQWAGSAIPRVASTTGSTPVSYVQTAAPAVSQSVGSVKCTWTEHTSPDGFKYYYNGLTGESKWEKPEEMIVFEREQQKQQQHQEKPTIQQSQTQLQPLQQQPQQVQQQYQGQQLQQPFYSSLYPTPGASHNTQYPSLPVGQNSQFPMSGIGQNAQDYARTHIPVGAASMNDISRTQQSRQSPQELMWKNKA
# Experimental: (§1) […] The mixture was then rapidly filtered through a nitrocellulose membrane, washed with 0.5× binding buffer, air dried and counted in a scintillation counter (Wallac 1414 WinSpectral v1.40). Heat denatured FCA protein was used to used determine the protein nature of the FCA and BSA was used as a control. All binding studies were carried out using three different GST affinity chromatography protein purifications with triplicate assays for each purification. […] Specific binding was calculated by taking the difference for assays with only ^3H^+-ABA (total binding) and assays that also contained 5 μM (±)-ABA added at the same time as ^3H^+-ABA (non-specific binding). Binding was represented as the number of moles of ^3H^+-ABA per mole of FCA protein.
# [3] = target: T1, FCA protein; assay: ABA binding assay with purified recombinant FCA; design: Kd; other: analog added in higher concentrations than 3H+-ABA (20-5000 nM); other: Scatchard analysis, r^2=0.88; other: in presence of 5 μM unlabelled (+)-ABA; pH range of maximum; fused on or other part: GST fused on for purification
# Experimental: as §1
# Chain of ABAP1 (Q9LLX3 entry or part of it): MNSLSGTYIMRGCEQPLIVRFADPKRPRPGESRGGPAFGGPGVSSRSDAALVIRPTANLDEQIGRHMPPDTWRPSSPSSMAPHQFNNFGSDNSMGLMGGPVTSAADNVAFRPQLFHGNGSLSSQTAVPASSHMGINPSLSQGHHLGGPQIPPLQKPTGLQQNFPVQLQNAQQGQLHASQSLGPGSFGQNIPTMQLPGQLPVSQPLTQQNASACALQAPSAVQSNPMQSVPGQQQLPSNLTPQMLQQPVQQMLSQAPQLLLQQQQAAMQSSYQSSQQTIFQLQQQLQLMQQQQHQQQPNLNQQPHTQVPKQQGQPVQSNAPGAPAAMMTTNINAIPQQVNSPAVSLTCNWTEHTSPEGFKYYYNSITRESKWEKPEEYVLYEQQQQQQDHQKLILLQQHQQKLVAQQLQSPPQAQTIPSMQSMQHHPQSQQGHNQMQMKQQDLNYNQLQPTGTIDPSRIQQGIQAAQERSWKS
substance,measurement,setting,value
abscisic acid [ABA],pH of maximum binding activity,[1]; 3H+-ABA binding at varying pH,7.3
same,maximum specific binding,"[1]; Scatchard plot analysis, r^2=0.94",0.8 mol ABA mold protein
same,ratio of ABA bound to ABAP1,"[1]; Scatchard plot, r^2=0.94",approximately 0.8 mol ABA mol^−1 protein
same,time maximum binding activity remained stable,[1]; additional time after reaching maximum binding,≥ 3 h
same,maximum binding activity (total binding),"[1]; association kinetics, total binding",≈ 0.7 mol ABA mol^−1 protein
same,non-specific binding,[1]; in presence of 5 μM unlabelled ABA,less than 10 % of the total binding
same,saturation of FCA 3H-(+)-ABA binding activity,[2]; at 15 min,approximately 50%
same,saturation of FCA 3H-(+)-ABA binding activity,[2]; at 45 min,approximately 95%
same,binding corresponding to 100% binding activity,"[3]; 50 nM 3H-(+)-ABA, FIG. 16",approximately 0.52 mol ABA mol^−1 protein
same,maximum binding,"[3]; Scatchard analysis, r^2=0.88",0.72 mol mol^−1 protein
same,ratio of ABA bound to FCA,[3]; Scatchard plot,approximately 0.72 mol ABA mol^−1 protein
same,non-specific binding,[3]; in presence of 5 μM unlabelled (+)-ABA,less than 11 % of the total binding
